[ ]: non-standard residue; d: D form. The star is where a group is joined. Butanoyl(4-pyren-1-yl) = O=C(CCCc1ccc2ccc3cccc4ccc1c2c34)*; Biotin = O=C1N[C@H]2[C@H](CS[C@H]2CCCCC(=O)*)N1

The target of assay [1] is synthetic Aβ42 oligomer (Aβ42 Oligo Type A) (Homo sapiens, UniProt P05067). As to the kind of experiment: Plate-based ELISA-like assay with immobilized biotinylated peptide probe (6E10-HRP/TMB detection). Format: binding. The procedure:
FIG. 4A and FIG. 4B illustrate the results in buffer and 10% soluble mouse brain extract using SEQ ID NO:41 as a peptide probe. […] The white bars indicate control reactions in which peptide are not added. Black bars show the complete reaction in which 9000, 1500, 250, 42, 7, 1.2, 0.2, or 0 pM Aβ42 oligomer is added (in triplicate) to wells containing bound peptide probe of SEQ ID NO:41.
The white bars indicate control reactions in which peptide are not added. Black bars show the complete reaction in which 10% human TBS brain extract containing 750, 250, 85, 28, 9.5, 3.1, or 0 pM Aβ42 oligomer is added (in triplicate) to wells containing bound peptide probe of SEQ ID NO:41.
FIG. 5A and FIG. 5B illustrate the results in 10% (A) and 30% (B) human brain TBS extract using SEQ ID NO:41 as a peptide probe. […] The white bars indicate control reactions in which peptide is not added. Black bars show the complete reaction in which 10% human TBS brain extract containing 750, 250, 85 or 0 pM Aβ42 oligomer is added (in triplicate) to wells containing bound peptide probe of SEQ ID NO:41.
The white bars indicate control reactions in which peptide are not added. Black bars show the complete reaction in which 30% human TBS brain extract containing 750, 250, 85, 28, 9.5, 3.1, or 0 pM Aβ42 oligomer is added (in triplicate) to wells containing bound peptide probe of SEQ ID NO:41.

The next assay deals with Aβ40 Dimer. The conditions noted are these: Mouse. The procedure:
(§1) A plate-based ELISA-like assay was developed in which the above-described peptide probes may be used to capture and detect target amyloid beta protein (such as oligomers). […] Streptavidin-coated 96-well plates are prepared, followed by introduction of biotinylated peptide. Sample is then added to the wells and allowed to incubate, such as for two hours at room temperature. Any target amyloid beta protein in the sample will be capture by the immobilized peptide probe. The plate is then washed, such as using a low salt buffer to eliminate potential interfering factors (e.g. endogenous proteins, lipids, and other debris). The remaining amyloid beta aggregate-peptide probe complex is bound to a reporter antibody that is specific for the N-terminus of the amyloid beta sequence (6E10-HRP), and detected by addition of 3,3′,5,5′-tetramethylbenzidine (TMB).
(§2) Soluble brain extracts are prepared according to a known method. For example 5 mL tris-buffered saline (PH 7.4) is added per gram of frozen brain tissue, and then homogenized with a dounce homogenizer (25 strokes). The material is then centrifuged at 21,900× g for 30 minutes at 4 C. The resulting TBS supernatant (soluble extract) is used at 10-30% (v/v) final concentration in the following assays.

Assay [2] concerns the target T1, Aβ42 monomer (Homo sapiens, UniProt P05067). As to the kind of experiment: Plate-based ELISA-like assay with immobilized biotinylated peptide probe. It counts as binding. The conditions noted are these: for Limit of detection, Aβ42 Monomer: up to 15 nM. The procedure: as §1, §2
The next assay deals with Aβ42 Oligo (Type B) (Homo sapiens, UniProt P05067). Described as above. Format: binding. The procedure:
as §1, §2

Assay [3] addresses T2, human serum albumin (Homo sapiens, UniProt P02768). The assay is described as above. It counts as binding. The procedure: as §1, §2
Assay [4] deals with T3, Aβ40 monomer (Homo sapiens, UniProt P05067). The assay is described as above. It counts as binding. The conditions noted are these: for Limit of detection, Aβ40 Monomer: up to 15 nM. The procedure:
as §1, §2

In another assay the target is synthetic Aβ42 oligomer (Homo sapiens, UniProt P05067). As to the kind of experiment: Self-fluorescence assay of pyrene-labeled probe with synthetic Aβ42 oligomer. Format: binding. The conditions noted are these: 70 nM probe. The procedure:
70 nM of the peptide probe of SEQ ID NO:2 is incubated with 4000, 2000, 1000, 450, 250 and 0 pM synthetic Aβ42 oligomer (in triplicate) in a solution consisting of 10 mM Hepes (pH 7.0), 0.0074% Tween20 and 30% (v/v) normal human CSF (Bioreclamations, Inc.) for 0, 3, and 18 hours at room temperature in a final volume of 200 μL in a microtiter plate. The plate is then analyzed using a Tecan safire^2 fluorescence plate reader. For each sample, the net self-fluorescence response (fluorescence emission from 370-385 nm) is determined by subtraction of the self-fluorescence response of the control (0 pM) from the fluorescence response of the experimental sample.
The specificity of the probe is confirmed as follows. 70 nM of the peptide probe of SEQ ID NO:22 is incubated with several potential substrates in a solution consisting of 10 mM Hepes (pH 7.0), 0.0074% Tween20 and 10% (v/v) normal human CSF. […] There also is a significant response to Aβ42 fiber down to at least 100 nN. […]
70 nM of each of the two peptoid probes 1 or 2 is incubated with 15, 5, 1.5 or 0 nM synthetic Aβ42 oligomer (in triplicate). […] The plate is then analyzed using a Tecan safire^2 fluorescence plate reader. For each sample, the self-fluorescence response (fluorescence emission from 370-385 nm) of the peptoid is plotted as a function of amyloid beta aggregate concentration.

In the next assay the target is Aβ42 fiber (Homo sapiens, UniProt P05067). As to the kind of experiment: Self-fluorescence specificity assay of probe in 10% human CSF. Set-up: unit not given here. The conditions noted are these: 70 nM probe; 10% (v/v) normal human CSF; FIG. 2. Format: binding. The procedure: (§3) The specificity of the probe is confirmed as follows. 70 nM of the peptide probe of SEQ ID NO:22 is incubated with several potential substrates in a solution consisting of 10 mM Hepes (pH 7.0), 0.0074% Tween20 and 10% (v/v) normal human CSF. […] There also is a significant response to Aβ42 fiber down to at least […]. […] Since fibers are easily removed from the reaction by a centrifugation step, specificity for amyloid beta oligomers is easily obtained.

The target in assay [5] is T1, Aβ42 monomer. The assay is described as above. It counts as binding. As to conditions: 70 nM probe; 10% (v/v) normal human CSF; FIG. 2. The procedure:
as §3

A further assay concerns the target Aβ40 fiber (Homo sapiens, UniProt P05067). The assay is described as above. It counts as binding. The conditions noted are these: 70 nM probe; 10% (v/v) normal human CSF; FIG. 2. The procedure:
as §3

A further assay deals with carbonic anhydrase. The description is as above. The conditions noted are these: 70 nM probe; 10% (v/v) normal human CSF; FIG. 2. It counts as binding. The procedure: as §3
Assay [6] addresses T2, human serum albumin. Described as above. It counts as binding. The conditions noted are these: 70 nM probe; 10% (v/v) normal human CSF; except at the highest dose, 0.16 mg/mL; FIG. 2. The procedure: as §3
Assay [7] has as its target T3, Aβ40 monomer. The assay is described as above. Format: binding. As to conditions: 70 nM probe; 10% (v/v) normal human CSF; FIG. 2. The procedure: as §3
Assay [8] deals with human serum albumin (human, UniProt P02768 25-609). Description: plate assay, biotinylated probe on streptavidin plate, 6E10-HRP/TMB detection; Human column (brain extract).

In the case of “PBA-KLVFFAEDVGSNKHAIIELMK(PBA)GLVPR GSGK(biotin)-NH2 [SEQ ID NO:41]”, the “lowest amount of amyloid beta aggregate detected in plate assay (t-test)” value in assay [1] (10% human TBS brain extract, FIG. 4B) turned out to be 28 pM; in assay [1] (buffer system, FIG. 4A), 7 pM. The “amyloid beta aggregate detectable down to” value in assay [1] (30% human TBS brain extract, FIG. 5B) is reported as not above 85 pM. Further, the “Limit of detection, Aβ42 Oligo (Type A)” value in assay [1] (Human) is approximately 28 pM; in assay [1] (Mouse) it was approximately 28 to 85 pM. The “Limit of detection, Aβ40 Dimer” value in the assay on Aβ40 Dimer worked out at 850 pM. For the same molecule, the “Limit of detection, Aβ42 Monomer” value on Aβ42 monomer [2] (Human) and on Aβ42 monomer [2] (Mouse) was “Not detected” throughout. Further, at Aβ42 monomer [2] (plate assay), the “TMB response to Aβ42 monomer” value is “little to no TMB response”. For the same molecule, the “Limit of detection, Aβ42 Oligo (Type B)” value on Aβ42 Oligo (Type B) (Human) is 8.5 pM; at Aβ42 Oligo (Type B) (Mouse), approximately 8.5 pM. Further, the “Limit of detection, has” value on human serum albumin [3] (Human, up to 0.15 mg/mL) was “Not detected”; on human serum albumin [3] (Mouse) it was “Not detected”. The “TMB response to human serum albumin” value at human serum albumin [3] (plate assay) is reported as “little to no TMB response”. Besides, the “Limit of detection, Aβ40 Monomer” value at Aβ40 monomer [4] (Human) and on Aβ40 monomer [4] (Mouse) was “Not detected” each time. Further, the “TMB response to Aβ40 monomer” value at Aβ40 monomer [4] (plate assay) is “little to no TMB response”.

Consider “PBA-KLVFFAEDVGSNKHAIIELMK(PBA)-NH2 ({Butanoyl(4-pyren-1-yl)}-KLVFFAEDVGSNKHAIIELMK(Butanoyl(4-pyren-1-yl))-NH2; SMILES CC[C@H](C)[C@H](NC(=O)[C@H](C)NC(=O)[C@H](Cc1c[nH]cn1)NC(=O)[C@H](CCCCN)NC(=O)[C@H](CC(N)=O)NC(=O)[C@H](CO)NC(=O)CNC(=O)[C@@H](NC(=O)[C@H](CC(=O)O)NC(=O)[C@H](CCC(=O)O)NC(=O)[C@H](C)NC(=O)[C@H](Cc1ccccc1)NC(=O)[C@H](Cc1ccccc1)NC(=O)[C@@H](NC(=O)[C@H](CC(C)C)NC(=O)[C@H](CCCCN)NC(=O)CCCc1ccc2ccc3cccc4ccc1c2c34)C(C)C)C(C)C)C(=O)N[C@H](C(=O)N[C@@H](CCC(=O)O)C(=O)N[C@@H](CC(C)C)C(=O)N[C@@H](CCSC)C(=O)N[C@@H](CCCCNC(=O)CCCc1ccc2ccc3cccc4ccc1c2c34)C(N)=O)[C@@H](C)CC) [SEQ ID NO:2, Salt bridge at G29H and G33E]”, for which, in the assay with synthetic Aβ42 oligomer (10 mM Hepes pH 7.0, 0.0074% Tween20, 30% (v/v) normal human CSF, emission 370-385 nm, FIG. 1), the “Aβ42 oligomer concentration statistically distinguishable from the control reaction (net self-fluorescence response, t-test)” value is listed as 450 pM.

For “PBA-KLVFFAEDVGSNKGAIIGLMK(PBA)rr-NH2 ({Butanoyl(4-pyren-1-yl)}-KLVFFAEDVGSNKGAIIGLMK(Butanoyl(4-pyren-1-yl))[dR][dR]-NH2; SMILES CC[C@H](C)[C@H](NC(=O)[C@H](C)NC(=O)CNC(=O)[C@H](CCCCN)NC(=O)[C@H](CC(N)=O)NC(=O)[C@H](CO)NC(=O)CNC(=O)[C@@H](NC(=O)[C@H](CC(=O)O)NC(=O)[C@H](CCC(=O)O)NC(=O)[C@H](C)NC(=O)[C@H](Cc1ccccc1)NC(=O)[C@H](Cc1ccccc1)NC(=O)[C@@H](NC(=O)[C@H](CC(C)C)NC(=O)[C@H](CCCCN)NC(=O)CCCc1ccc2ccc3cccc4ccc1c2c34)C(C)C)C(C)C)C(=O)N[C@H](C(=O)NCC(=O)N[C@@H](CC(C)C)C(=O)N[C@@H](CCSC)C(=O)N[C@@H](CCCCNC(=O)CCCc1ccc2ccc3cccc4ccc1c2c34)C(=O)N[C@H](CCCNC(=N)N)C(=O)N[C@H](CCCNC(=N)N)C(N)=O)[C@@H](C)CC) [SEQ ID NO:22, WT, with 2 C-terminal dArg residues, and alternate label site]”, the “peptide probe fluorescence response to Aβ42 oligomer” value with synthetic Aβ42 oligomer (10% (v/v) normal human CSF, FIG. 2) is “strong and dose-dependent response”. Also, the “lowest Aβ42 fiber concentration giving significant response” value in the assay with Aβ42 fiber is on record as not above 100. For the same molecule, the “peptide fluorescence response to Aβ42 monomer” value with Aβ42 monomer [5] is on record as “little or no peptide fluorescence response”. Moreover, the “peptide fluorescence response to Aβ40 fiber” value in the assay with Aβ40 fiber is “little or no peptide fluorescence response”. Besides, the “peptide fluorescence response to carbonic anhydrase” value in the assay on carbonic anhydrase is “little or no peptide fluorescence response”. In addition, in the assay with human serum albumin [6], the “peptide fluorescence response to human serum albumin” value is listed as “little or no peptide fluorescence response”. Further, the “peptide fluorescence response to Aβ40 monomer” value with Aβ40 monomer [7] is reported as “little or no peptide fluorescence response”.

B1: peptide probe of SEQ ID NO:41 (peptide)
peptide: {Butanoyl(4-pyren-1-yl)}-KLVFFAEDVGSNKHAIIELMK(Butanoyl(4-pyren-1-yl))GLVPRGSGK(Biotin)-NH2
SMILES: CC[C@H](C)[C@H](NC(=O)[C@H](C)NC(=O)[C@H](Cc1c[nH]cn1)NC(=O)[C@H](CCCCN)NC(=O)[C@H](CC(N)=O)NC(=O)[C@H](CO)NC(=O)CNC(=O)[C@@H](NC(=O)[C@H](CC(=O)O)NC(=O)[C@H](CCC(=O)O)NC(=O)[C@H](C)NC(=O)[C@H](Cc1ccccc1)NC(=O)[C@H](Cc1ccccc1)NC(=O)[C@@H](NC(=O)[C@H](CC(C)C)NC(=O)[C@H](CCCCN)NC(=O)CCCc1ccc2ccc3cccc4ccc1c2c34)C(C)C)C(C)C)C(=O)N[C@H](C(=O)N[C@@H](CCC(=O)O)C(=O)N[C@@H](CC(C)C)C(=O)N[C@@H](CCSC)C(=O)N[C@@H](CCCCNC(=O)CCCc1ccc2ccc3cccc4ccc1c2c34)C(=O)NCC(=O)N[C@@H](CC(C)C)C(=O)N[C@H](C(=O)N1CCC[C@H]1C(=O)N[C@@H](CCCNC(=N)N)C(=O)NCC(=O)N[C@@H](CO)C(=O)NCC(=O)N[C@@H](CCCCNC(=O)CCCC[C@@H]1SC[C@@H]2NC(=O)N[C@@H]21)C(N)=O)C(C)C)[C@@H](C)CC
notes: P22 with a thrombin site linker and biotin at the C-terminus, immobilised on streptavidin-coated plates; also called AD317; biotinylated peptide probe
Consider B1, for which, in the assay with human serum albumin [8], the binding result is on record as “no binding (tested: up to 0.15 mg/mL)”.
